Reference: patent US20120142784A1, “LYSINE-SPECIFIC DEMETHYLASE 1(LSD1) IS A BIOMARKER FOR BREAST CANCER” (priority 2009, published 2012)

Experiments:
[1] = system: MCF7, MDA-MB 453, MDA-MB 231 and T47D breast cancer cells; test: MTT cell growth assay, breast cancer cell lines; assay type: cell-based; settings: four breast cancer cell lines, treatment for 72 hours
Protocol: (§1) MCF7, MDA-MB 453 and MDA-MB 231 breast cancer cells were cultivated in DMEM, T47D breast cancer cells were cultivated in RPMI, GLC-1, GLC-2 and H460 R lung carcinoma cells were cultivated in IMDM, and sarcoma cells 1273 were cultivated in Häm's F12. All media were supplemented with 10% FCS, L-glutamine and antibiotics.
(§2) An 3-([…])-2,5-diphenyltetrazolium bromide (MTT) assay was performed according to the manufacturer's protocol (Roche, Mannheim, Germany).

[2] = system: global H3K4 dimethylation; test: Western blot of H3K4 dimethylation in breast cancer cells; assay type: cell-based; settings: 10 and or 30 μM, 24 h
Protocol: Protein lysates were extracted from cells and blotted as described in Schulte et al. [Schulte, J. H. et al. (2009), see above] The membranes were incubated for 1-2 hours using the following antibodies and dilutions: α-LSD1 (Novus Biologicals) 1:1000; α-K4H3me2 (Abcam, Cambridge, UK) 1:1000; β-actin (Sigma-Aldrich, Hamburg, Germany) 1:5000; Her2/erbB2 (DAKO), 1:1000. […] Anal. Biochem., 295, 17-21].

[3] = system: GLC-1, GLC-2 and H460 R lung carcinoma cells; settings: three lung carcinoma cell lines, 72 hours
Protocol: as §1, §2

[4] = system: sarcoma cells 1273; settings: sarcoma cell line 1273, 72 hours
Protocol: as §1, §2

[5] = system: liposarcoma cell lines FU-DDLS-1, MLS1765, T449, T778, MLS402, SW872; test: MTT cell growth assay, liposarcoma cell lines; settings: six liposarcoma cell lines, 72 h
[6] = system: synovial sarcoma cell lines SYO-1, HS-SY-II, 1273/99, Fuji and CME-1; test: MTT cell growth assay, synovial sarcoma cell lines; settings: five synovial sarcoma cell lines, 72 h
[7] = target: LSD1 protein (Homo sapiens, UniProt O60341); settings: breast cancer cells, 10 and or 30 μM, 24 h
Protocol: The membranes were incubated for 1-2 hours using the following antibodies and dilutions: α-LSD1 (Novus Biologicals) 1:1000; α-K4H3me2 (Abcam, Cambridge, UK) 1:1000; β-actin (Sigma-Aldrich, Hamburg, Germany) 1:5000; Her2/erbB2 (DAKO), 1:1000.

Row | SMILES | cell growth (MTT assay, viable cells) [1] | global H3K4 dimethylation (Western blot) [2] | cell growth (MTT assay, viable cells) [3] | cell growth (MTT assay, % viability) [4] | cell growth (MTT assay, viable cells) [5] | cell growth (MTT assay, viable cells) [6] | LSD1 protein levels (Western blot) [7]
1 | N[C@@H]1C[C@H]1c1ccccc1 (racemic) [tranylcypromine] | impaired cell growth in a dose-dependent manner | accumulation of H3K4 dimethylation | impaired cell growth | impaired cell growth | impaired cell growth in these sarcoma cell lines in a concentration dependent manner | impaired cell growth in these sarcoma cell lines in a concentration dependent manner | 
2 | C#CCN(C)CCCOc1ccc(Cl)cc1Cl [clorgyline] | impaired cell growth in a dose-dependent manner | accumulation of H3K4 dimethylation |  |  | impaired cell growth in these sarcoma cell lines in a concentration dependent manner | impaired cell growth in these sarcoma cell lines in a concentration dependent manner | not affected
3 | C#CCN(C)Cc1ccccc1 [pargyline] |  |  |  |  | impaired cell growth in these sarcoma cell lines in a concentration dependent manner | impaired cell growth in these sarcoma cell lines in a concentration dependent manner | 
